Experimental data from paper PMC10702411 (Nature structural & molecular biology, 2023).
Blank lines part the entries; values can stand above or below the compound they belong to.

Key:
TCM = experiment: apoptosis / cell death read-outs, uninfected TCM; assay type: cell-based, human; conditions: LCL161, 4 h
RIPK1 = RIPK1 ubiquitination and Ser166 phosphorylation; assay type: cell-based, human; conditions: 100 nM LCL161, 5 min (ubiquitination) or 4 h; n = 4
human glioma LN18 cells = experiment: MTT survival assay, LN18; assay type: cell-based; conditions: LCL161 and/or TNF, 24 h, three independent biological replicates
cancer cells = conditions: cited from earlier work
HIV-TCM [1] = experiment: Cell Death Detection ELISA, HIV-TCM; assay type: cell-based, human; conditions: LCL161, 4 h, n = 4
BIRC2 and BIRC3 in TCM = experiment: western blot of BIRC2 and BIRC3, uninfected TCM; assay type: cell-based, human; conditions: uninfected cells (TCM), 100 nM LCL161, 4 h; n = 4
HIV-TCM [2] = experiment: LDH release assay, HIV-TCM; assay type: cell-based, human; conditions: LCL161, 4 h, n = 4
[3] = cited from earlier work
[4] = system: BIRC2 and BIRC3 in HIV-TCM; experiment: western blot of BIRC2 and BIRC3, HIV-TCM; assay type: cell-based, human; conditions: 100 nM LCL161, 4 h, n = 4
[5] = system: caspase-3 and PARP1 in HIV-TCM; experiment: western blot of caspase-3 and PARP1, HIV-TCM; assay type: cell-based, human; conditions: 100 nM LCL161, 4 h, n = 4
HIV-TCM [6] = experiment: annexin V / propidium iodide flow cytometry, HIV-TCM; assay type: cell-based, human; conditions: LCL161, Supplementary Fig. 8
FAS DISC in TCM = experiment: FAS DISC coimmunoprecipitation, TCM; assay type: cell-based, human; conditions: 100 nM LCL161, 4 h, co-IP, n = 4
[7] = system: mouse embryonic fibroblasts (MEFs); experiment: MTT survival assay, MEF; assay type: cell-based; conditions: LCL161 and/or TNF, 24 h, three independent biological replicates
HIV-TCM [8] = experiment: HIV-1 p24 antigen release; assay type: cell-based; conditions: Supplementary Fig. 7c,d
BIRC2BIR3 = BIRC2BIR3 (Homo sapiens, UniProt Q13490); experiment: X-ray crystal structure of BIRC2BIR3 complex; assay type: binding; conditions: Supplementary Fig. 2
[9] = system: D234A and E239A mutants of BIRC2BIR2; experiment: NMR and pulldown, BIRC2BIR2 D234A and E239A mutants; assay type: binding, human; conditions: NMR and pulldown (performed twice)
[10] = system: D320A and E325A mutants of BIRC2BIR3; experiment: NMR and pulldown, BIRC2BIR3 D320A and E325A mutants; assay type: binding, human; conditions: NMR and pulldown (performed twice)
BIRC2_3BIR D234A/D320A = experiment: pulldown, BIRC2_3BIR D234A/D320A; assay type: binding, human; conditions: D234A/D320A concurrently, performed twice
[11] = system: IFNγ stimulated ex vivo differentiated monocyte-derived macrophages; experiment: cytokine antibody array, macrophages; assay type: cell-based, human; conditions: 10 μM embelin, IFNγ 24 h, supernatants; array in duplicate

Chain of BIRC2BIR3 (Q13490 261-346): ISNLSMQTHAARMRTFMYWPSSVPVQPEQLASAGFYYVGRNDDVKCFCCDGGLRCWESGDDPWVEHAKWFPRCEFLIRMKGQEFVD

Compound: CN[C@@H](C)C(=O)N[C@H](C(=O)N1CCC[C@H]1c1nc(C(=O)c2ccc(F)cc2)cs1)C1CCCCC1 [LCL161]
apoptosis / LDH release in uninfected cells (TCM): not in the uninfected cells
RIPK1 deubiquitination, phosphorylation and activation (RIPK1): deubiquitination and Ser166 phosphorylation and thus activation of RIPK1
sensitization to killing by TNF (human glioma LN18 cells): sensitized mouse embryonic fibroblasts (MEFs) and human glioma LN18 cells to killing by TNF
anticancer activity (cancer cells; at least two dozen tumor types): potent anticancer activity in at least two dozen tumor types
sensitization of cancer cells to chemotherapy (cancer cells; with cisplatin and vincristine): sensitizes cancer cells to conventional chemotherapy with cisplatin and vincristine
cytoplasmic histone-associated DNA fragments (HIV-TCM [1]): increase in cytoplasmic histone-associated DNA fragments
degradation of BIRC2 and BIRC3 (BIRC2 and BIRC3 in TCM): induced the rapid degradation of BIRC2 and BIRC3
LDH release (HIV-TCM [2]): increase in lactate dehydrogenase (LDH) release
antiproliferation and bioavailability properties ([3]; among SMAC mimetic compounds): one of the most promising antiproliferation and bioavailability properties
pharmacological properties [3]: favorable pharmacological properties
toxicity [3]: minor toxicity
degradation of BIRC2 and BIRC3 [4]: induced the rapid degradation of BIRC2 and BIRC3
caspase-3 cleavage [5]: cleavage of caspase-3
phosphatidylserine translocation (HIV-TCM [6]): translocation of phosphatidylserine from the inner to the outer leaflet
plasma membrane permeabilization (HIV-TCM [6]): permeabilization of the plasma membrane
association of FADD, cFLIPS and Ser166 phosphorylated RIPK1 with FAS (FAS DISC in TCM): did not associate with FAS
sensitization to killing by TNF [7]: sensitized mouse embryonic fibroblasts (MEFs) and human glioma LN18 cells to killing by TNF
HIV-1 p24 antigen release (HIV-TCM [8]): not accompanied by an increase in HIV-1 p24 antigen release

Compound: ATPF [caspase-9]
binding site in overlay of structures (BIRC2BIR3): occupy the same binding site of BIRC2BIR3

binding to mutant domain [9]: abrogated binding
binding to mutant domain [10]: abrogated binding
binding to double mutant of triple BIR (BIRC2_3BIR D234A/D320A): disrupt binding
Compound: H3: N terminus of H3 (residues 1–22 of H3), histone peptide in pulldowns

Compound: CCCCCCCCCCCC1=C(O)C(=O)C=C(O)C1=O [embelin]
interleukin-6 (IL-6) level [11]: increase of interleukin-6 (IL-6)

binding to mutant domain [9]: abrogated binding
binding to mutant domain [10]: abrogated binding
Compound: H3T3ph: H3 peptide with phosphorylation of Thr3

Compound: AVPI [SMAC]
binding site in overlay of structures (BIRC2BIR3): occupy the same binding site of BIRC2BIR3
